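In this assay, cells in 96-well plates receive the compound at five concentrations for 48 hours. Endpoints are linearly interpolated between the surrounding concentrations. GI50 = concentration required for 50% inhibition of growth.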 Activity calls are given as the source filed them. No stated cut-off is given here; in the data, active = GI50 up to about 1.1 µM and inactive = higher.
What was measured:
Test in all cases: inhibition of tumour cell growth, NCI panel, 48 h
786-0 = tested on: 786-0
M14 = tested on: M14
NCI/ADR-RES = tested on: NCI/ADR-RES
SW-620 = tested on: SW-620
MDA-MB-231 = tested on: MDA-MB-231
A498 = tested on: A498
PC-3 = tested on: PC-3
SK-MEL-5 = tested on: SK-MEL-5
SNB-75 = tested on: SNB-75
HOP-62 = tested on: HOP-62
Malme-3M = tested on: Malme-3M
SNB-19 = tested on: SNB-19
MOLT-4 = tested on: MOLT-4
COLO 205 = tested on: COLO 205
HCT-15 = tested on: HCT-15
UO-31 = tested on: UO-31
OVCAR-3 = tested on: OVCAR-3
RPMI-8226 = tested on: RPMI-8226
HL-60 = tested on: HL-60
HOP-92 = tested on: HOP-92

SMILES	GI50 (786-0)	GI50 (M14)	GI50 (NCI/ADR-RES)	GI50 (SW-620)	GI50 (MDA-MB-231)	GI50 (A498)	GI50 (PC-3)	GI50 (SK-MEL-5)	GI50 (SNB-75)	GI50 (HOP-62)	GI50 (Malme-3M)	GI50 (SNB-19)	GI50 (MOLT-4)	GI50 (COLO 205)	GI50 (HCT-15) [µM]	GI50 (UO-31)	GI50 (OVCAR-3)	GI50 (RPMI-8226)	GI50 (HL-60)	GI50 (HOP-92)
Cn1nc(/C=C\C(=O)N2CC(CCl)c3c2cc(N)c2ccccc32)cc1/C=C/C(=O)N1CC(CCl)c2c1cc(N)c1ccccc21 (stereo not given)	< 0.01 µM (active)	< 0.01 µM (active)	0.0124 µM (active)	< 0.01 µM (active)	< 0.01 µM (active)	< 0.01 µM (active)	< 0.01 µM (active)	< 0.01 µM (active)	< 0.01 µM (active)	< 0.01 µM (active)	< 0.01 µM (active)	< 0.01 µM (active)	< 0.01 µM (active)	< 0.01 µM (active)	0.0119	< 0.01 µM (active)	< 0.01 µM (active)	–	–	–
COc1ccc2oc(=N)c(C(=O)Nc3cccc4ccccc34)cc2c1	11.8 µM (inactive)	17.9 µM (inactive)	25.8 µM (inactive)	7.57 µM (inactive)	26 µM (inactive)	13.2 µM (inactive)	12.3 µM (inactive)	> 100 µM (inactive)	10.2 µM (inactive)	11 µM (inactive)	8.65 µM (inactive)	13.5 µM (inactive)	–	> 100 µM (inactive)	1.61	13 µM (inactive)	10.4 µM (inactive)	14.1 µM (inactive)	23.7 µM (inactive)	–
OCc1cn(Cc2ccccc2)c2ccccc12	10.7 µM (inactive)	> 32.6 µM (inactive)	15.2 µM (inactive)	1.36 µM (inactive)	19.5 µM (inactive)	–	30.1 µM (inactive)	25.7 µM (inactive)	1.51 µM (inactive)	5.32 µM (inactive)	5.46 µM (inactive)	> 64.6 µM (inactive)	> 47.3 µM (inactive)	0.444 µM (active)	10.8	> 87.7 µM (inactive)	0.232 µM (active)	2.16 µM (inactive)	5.9 µM (inactive)	5.51 µM (inactive)
C=CCNC(=S)NC=C(C(N)=O)C(N)=O	> 100 µM (inactive)	> 100 µM (inactive)	> 100 µM (inactive)	> 100 µM (inactive)	> 100 µM (inactive)	< 0.01 µM (active)	> 100 µM (inactive)	> 100 µM (inactive)	> 100 µM (inactive)	> 100 µM (inactive)	> 100 µM (inactive)	> 100 µM (inactive)	> 100 µM (inactive)	> 100 µM (inactive)	> 100	87.9 µM (inactive)	11.1 µM (inactive)	> 100 µM (inactive)	> 100 µM (inactive)	–
COc1ccc(-c2nc3ncccn3c2-c2ccc(SC)cc2)cc1	4.59 µM (inactive)	1.48 µM (inactive)	1.46 µM (inactive)	1.48 µM (inactive)	4.24 µM (inactive)	–	3.13 µM (inactive)	0.953 µM (active)	5.96 µM (inactive)	5.64 µM (inactive)	–	1.19 µM (inactive)	3.7 µM (inactive)	1.33 µM (inactive)	1.51	4.46 µM (inactive)	0.44 µM (active)	2.48 µM (inactive)	1.73 µM (inactive)	7.18 µM (inactive)
CC(=O)c1cccn1/C=C(\OC(=O)OC(C)(C)C)c1ccc[nH]1	> 100 µM (inactive)	76.4 µM (inactive)	50.2 µM (inactive)	83.9 µM (inactive)	73.8 µM (inactive)	34.8 µM (inactive)	49.1 µM (inactive)	40.3 µM (inactive)	8.24 µM (inactive)	77.3 µM (inactive)	> 100 µM (inactive)	46.7 µM (inactive)	48.2 µM (inactive)	89.7 µM (inactive)	55.5	36.9 µM (inactive)	46.6 µM (inactive)	59 µM (inactive)	31 µM (inactive)	–
Cc1[nH]n(-c2nc3c(c(=O)[nH]2)CCCC3)c(=O)c1CCO	> 100 µM (inactive)	> 100 µM (inactive)	> 100 µM (inactive)	> 100 µM (inactive)	> 100 µM (inactive)	> 100 µM (inactive)	> 100 µM (inactive)	> 100 µM (inactive)	–	> 100 µM (inactive)	> 100 µM (inactive)	> 100 µM (inactive)	> 100 µM (inactive)	> 100 µM (inactive)	> 100	> 100 µM (inactive)	> 100 µM (inactive)	–	> 100 µM (inactive)	–
CC(=C\c1ccccc1)/C=C(\C#N)C(N)=O	> 10 µM (inactive)	> 10 µM (inactive)	> 10 µM (inactive)	> 10 µM (inactive)	> 10 µM (inactive)	> 10 µM (inactive)	> 10 µM (inactive)	> 10 µM (inactive)	> 10 µM (inactive)	> 10 µM (inactive)	> 10 µM (inactive)	–	–	> 10 µM (inactive)	> 10	> 10 µM (inactive)	> 10 µM (inactive)	–	–	–
CC(C)(C)n1c(=O)[nH]n(C2NN=Cc3cccc4cccc2c34)c1=O (stereo not given)	57.1 µM (inactive)	48 µM (inactive)	32.8 µM (inactive)	47.3 µM (inactive)	21.5 µM (inactive)	25.5 µM (inactive)	31.8 µM (inactive)	–	21.9 µM (inactive)	–	36 µM (inactive)	34.9 µM (inactive)	20.8 µM (inactive)	30 µM (inactive)	31.3	14.1 µM (inactive)	51.9 µM (inactive)	16.3 µM (inactive)	12.9 µM (inactive)	–
CC1COC(c2cn[nH]c2C(N)=O)C1O (stereo not given)	> 100 µM (inactive)	> 100 µM (inactive)	> 100 µM (inactive)	> 100 µM (inactive)	> 100 µM (inactive)	> 100 µM (inactive)	> 100 µM (inactive)	> 100 µM (inactive)	> 100 µM (inactive)	> 100 µM (inactive)	–	> 100 µM (inactive)	> 100 µM (inactive)	> 100 µM (inactive)	> 100	> 100 µM (inactive)	> 100 µM (inactive)	> 100 µM (inactive)	> 100 µM (inactive)	–
C=Cc1ccccc1C1(O)C=CC(OC)(OC)C=C1	5.04 µM (inactive)	5.96 µM (inactive)	4.81 µM (inactive)	3.8 µM (inactive)	10.5 µM (inactive)	23.2 µM (inactive)	10.1 µM (inactive)	13.8 µM (inactive)	18.8 µM (inactive)	6.31 µM (inactive)	13.5 µM (inactive)	15.8 µM (inactive)	4 µM (inactive)	10.8 µM (inactive)	3.53	7.24 µM (inactive)	3.05 µM (inactive)	6.41 µM (inactive)	3.4 µM (inactive)	–
O=C1CS(=O)(=O)C(c2cccc(Oc3ccccc3)c2)N1c1ccc(Cl)cc1 (stereo not given)	16.5 µM (inactive)	18.5 µM (inactive)	18.9 µM (inactive)	30 µM (inactive)	31.4 µM (inactive)	–	17.9 µM (inactive)	12.3 µM (inactive)	28 µM (inactive)	46.7 µM (inactive)	25.4 µM (inactive)	46.7 µM (inactive)	20.9 µM (inactive)	17.7 µM (inactive)	20.2	28.6 µM (inactive)	24.2 µM (inactive)	–	24.2 µM (inactive)	6.14 µM (inactive)
C=C1C[C@@H](O)[C@@H](Br)C(C)(C)[C@@]12C=CC(O)(CBr)CC2 (stereo not given in full)	> 100 µM (inactive)	> 100 µM (inactive)	0.0191 µM (active)	> 100 µM (inactive)	29 µM (inactive)	–	1.48 µM (inactive)	76.7 µM (inactive)	–	> 100 µM (inactive)	> 100 µM (inactive)	88.9 µM (inactive)	21.4 µM (inactive)	–	> 100	> 100 µM (inactive)	> 100 µM (inactive)	24.9 µM (inactive)	35.4 µM (inactive)	13.6 µM (inactive)
CN(C)CCc1ccnc2nc(-c3ccc4ccccc4c3)cn12	25 µM (inactive)	47.8 µM (inactive)	26.2 µM (inactive)	21.4 µM (inactive)	28.8 µM (inactive)	–	33.7 µM (inactive)	34.7 µM (inactive)	–	56.9 µM (inactive)	96.4 µM (inactive)	69.2 µM (inactive)	35.2 µM (inactive)	33.3 µM (inactive)	34.6	52.6 µM (inactive)	25.8 µM (inactive)	> 100 µM (inactive)	36.9 µM (inactive)	–
O=C(CN1CCOCC1)c1ccc2c(c1)oc(=O)n2CCN1CCOCC1	> 100 µM (inactive)	> 100 µM (inactive)	> 100 µM (inactive)	> 100 µM (inactive)	> 100 µM (inactive)	> 100 µM (inactive)	> 100 µM (inactive)	> 100 µM (inactive)	> 100 µM (inactive)	> 100 µM (inactive)	> 100 µM (inactive)	> 100 µM (inactive)	> 100 µM (inactive)	> 100 µM (inactive)	–	–	> 100 µM (inactive)	> 100 µM (inactive)	> 100 µM (inactive)	–
O=C1C=C2CC[C@H]3[C@@H]4CC[C@H](Oc5c6ccccc6nc6ccccc56)[C@H]4CC[C@@H]3[C@H]2CC1	91.2 µM (inactive)	61.9 µM (inactive)	20.4 µM (inactive)	51.8 µM (inactive)	41.3 µM (inactive)	–	33.4 µM (inactive)	22.5 µM (inactive)	28.3 µM (inactive)	57.1 µM (inactive)	–	> 100 µM (inactive)	–	42.5 µM (inactive)	24.7	–	42.6 µM (inactive)	–	12.2 µM (inactive)	13.3 µM (inactive)

Reference: ChEMBL document CHEMBL1201862, “PubChem BioAssay data set” (2004)
